In patent US20260014210A1, “SYMBIOTIC BACTERIUM IN HUMANS FOR PROMOTING HAIR GROWTH AND USE THEREOF” (priority 2022, published 2026):

Key:
ShC4 strain = assay: ShC4 antibiotic sensitivity test (antibiotic sensitivity tablets); format: cell-based, Staphylococcus hominis; conditions: for Mean diameter (mm) of inhibitory ring: antibiotic content per tablet, 36±1° C., 24 hours, three replicates; for sensitivity of ShC4 strain to the antibiotic (in words): summary of Table 1
[1] = system: Dunkin Hartley guinea pigs; conditions: 200 μL applied on D0, D7, D14, provocation D28; ShC4 2E10 CFU; scored to 72 hours after stimulation
[2] = standard for tetracycline and minocycline
[3] = standard for oxacillin and piperacillin
[4] = standard for penicillin and ampicillin

CN(C)[C@@H]1C(O)=C(C(N)=O)C(=O)[C@@]2(O)C(O)=C3C(=O)c4c(O)cccc4[C@@](C)(O)[C@H]3C[C@@H]12 [tetracycline]
Mean diameter (mm) of inhibitory ring (ShC4 strain): 25.85 mm | Sensitivity (ShC4 strain; [2]): S (≥19)

Cc1onc(-c2ccccc2)c1C(=O)N[C@@H]1C(=O)N2[C@@H]1SC(C)(C)[C@@H]2C(=O)O [Oxacillin (OX), Oxacillin]
Mean diameter (mm) of inhibitory ring (ShC4 strain): 29.4 mm | Sensitivity (ShC4 strain; [3]): S (≥18) | sensitivity of ShC4 strain to the antibiotic (in words) (ShC4 strain): sensitive

cotrimoxazole
Mean diameter (mm) of inhibitory ring (ShC4 strain): 0 mm | sensitivity of ShC4 strain to the antibiotic (in words) (ShC4 strain): resistance

2,4-dinitrochlorobenzene [CDNB]
allergy rate [1]: 100%

CC[C@H]1OC(=O)[C@H](C)[C@@H](O[C@H]2C[C@@](C)(OC)[C@@H](O)[C@H](C)O2)[C@H](C)[C@@H](O[C@@H]2O[C@H](C)C[C@H](N(C)C)[C@H]2O)[C@](C)(O)C[C@@H](C)C(=O)[C@H](C)[C@@H](O)[C@]1(C)O [erythromycin]
Mean diameter (mm) of inhibitory ring (ShC4 strain): 23.96 mm | Sensitivity (ShC4 strain; standard for erythromycin): S (≥23) | sensitivity of ShC4 strain to the antibiotic (in words) (ShC4 strain): sensitive

CC1(C)S[C@@H]2[C@H](NC(=O)[C@H](N)c3ccccc3)C(=O)N2[C@H]1C(=O)O [ampicillin]
Mean diameter (mm) of inhibitory ring (ShC4 strain): 16.69 mm | Sensitivity (ShC4 strain; [4]): R (≤28) | sensitivity of ShC4 strain to the antibiotic (in words) (ShC4 strain): resistance

CCN1CCN(C(=O)N[C@@H](C(=O)N[C@@H]2C(=O)N3[C@@H]2SC(C)(C)[C@@H]3C(=O)O)c2ccccc2)C(=O)C1=O [Piperacillin]
Mean diameter (mm) of inhibitory ring (ShC4 strain): 18.86 mm | Sensitivity (ShC4 strain; [3]): S (≥18) | sensitivity of ShC4 strain to the antibiotic (in words) (ShC4 strain): sensitive

Penicillin [Penicillin (P)]
Mean diameter (mm) of inhibitory ring (ShC4 strain): 15.72 mm | Sensitivity (ShC4 strain; [4]): R (≤28) | sensitivity of ShC4 strain to the antibiotic (in words) (ShC4 strain): resistance

CN(C)c1ccc(O)c2c1C[C@H]1C[C@H]3[C@H](N(C)C)C(O)=C(C(N)=O)C(=O)[C@@]3(O)C(O)=C1C2=O [minocycline]
Mean diameter (mm) of inhibitory ring (ShC4 strain): 29.33 mm | Sensitivity (ShC4 strain; [2]): S (≥19)
